# Source: patent US9839642B2, “Beta-tetrazolyl-propionic acids as metallo-beta-lactamase inhibitors” (priority 2014, dated 2017)
# Like-named read-outs stand apart in the source and are kept apart here.
# Columns and labels:
# IMP-1 = IMP-1 (Serratia marcescens, UniProt P52699); experiment: Enzyme activity: determination of IC50, fluorescence assay with CCF2-FA substrate; assay type: biochemical; conditions: CCF2-FA 1.25 μM, 2 hours at 25° C., read-out: IMP1 IC50
# Outline: (§1)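 Enzyme at 1 pM (NDM-1), 2 pM (IMP-1) or 30 pM (VIM-1) was incubated with inhibitor (20 μM to 0.00063 μM) and 1.25 μM CCF2-FA in 100 mM KH2PO4 pH 7, 0.005% Tween-20, 10 μM ZnSO4 for 2 hours at 25° C. Fluorescence was read at ex 405/em 460 nm; IC50 from 4-parameter fit.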
# NDM-1 = NDM-1 (Klebsiella pneumoniae, UniProt C7C422); experiment: as above; assay type: biochemical; conditions: CCF2-FA 1.25 μM, 2 hours at 25° C., read-out: NDM1 IC50
# Sequence of NDM-1 (C7C422 29-270, looked up, species assumed): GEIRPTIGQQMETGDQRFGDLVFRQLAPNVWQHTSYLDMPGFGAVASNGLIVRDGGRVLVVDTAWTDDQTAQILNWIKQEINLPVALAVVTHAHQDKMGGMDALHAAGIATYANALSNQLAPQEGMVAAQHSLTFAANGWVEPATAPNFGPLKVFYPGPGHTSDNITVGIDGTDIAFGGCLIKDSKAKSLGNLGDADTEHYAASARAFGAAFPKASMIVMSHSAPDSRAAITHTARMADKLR
# Outline: as §1
# VIM-1 = VIM-1 (Pseudomonas aeruginosa, UniProt A0A0F7KYQ8); experiment: as above; assay type: biochemical; conditions: CCF2-FA 1.25 μM, 2 hours at 25° C., read-out: VIM1 IC50
# Outline: as §1
# [1] = test system: Escherichia coli expressing NDM-1 (CLB30016); experiment: Antibiotic potentiation activity: synergistic concentration (MITC95) with imipenem, growth by OD600; assay type: cell-based
# Outline: (§2)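 Colonies from overnight agar plates (35 °C) were suspended in saline and diluted 1:100 into 1.1× CAMHB. Inhibitor (final 200 μM to 0.195 μM) was combined with imipenem at 1 or 4 μg/ml, incubated 22–24 h at 35 °C, and absorbance read; MITC95 is the lowest inhibitor concentration giving 95% growth inhibition.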
# [2] = test system: Klebsiella pneumoniae expressing VIM-1 (IHMA599644); experiment: as above; assay type: cell-based
# Outline: as §2
# [3] = test system: Serratia marcescens expressing IMP-1 (CL5741); experiment: as above; assay type: cell-based
# Outline: as §2
# [4] = E. coli CLB30016 (NDM-1), 95% inhibition of growth
# [5] = K. pneumoniae IHMA599644 (VIM-1), 95% inhibition of growth
# [6] = S. marcescens CL5741 (IMP-1), 95% inhibition of growth
# [7] = 95% inhibition of bacterial growth, strain CLB30016
# [8] = 95% inhibition of bacterial growth, strain IHMA599644
# [9] = 95% inhibition of bacterial growth, strain CL5741
# Sequence of IMP-1 (P52699 19-246, looked up, species assumed): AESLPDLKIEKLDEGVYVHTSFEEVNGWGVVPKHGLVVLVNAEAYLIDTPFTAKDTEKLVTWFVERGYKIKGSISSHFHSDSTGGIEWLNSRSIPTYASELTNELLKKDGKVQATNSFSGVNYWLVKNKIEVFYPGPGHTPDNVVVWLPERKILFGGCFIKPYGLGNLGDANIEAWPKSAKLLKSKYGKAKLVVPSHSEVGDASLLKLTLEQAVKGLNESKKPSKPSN
SMILES,IC50 (IMP-1; IMP-1 enzyme 2 pM) [nM],IC50 (NDM-1; NDM-1 enzyme 1 pM) [nM],IC50 (VIM-1; VIM-1 enzyme 30 pM) [nM],"NDM1 EC30016 MITC95 [1, 4] [µM]","VIM1 KP599644 MITC95 [2, 5] [µM]","IMP1 SM5741 MITC95 [3, 6] [µM]",IC50 (IMP-1; enzyme 2 pM) [nM],IC50 (NDM-1; enzyme 1 pM) [nM],IC50 (VIM-1; enzyme 30 pM) [nM],"NDM1 EC30016 MITC95 [1, 7] [µM]","VIM1 KP599644 MITC95 [2, 8] [µM]","IMP1 SM5741 MITC95 [3, 9] [µM]"
"CCC[C@H](C(=O)O)[C@H](Cc1ccc2nonc2c1)c1nnn[nH]1 [Example 273, (2S)-2-[(1S)-2-(2,1,3-benzoxadiazol-5-yl)-1-(1H-tetrazol-5-yl)ethyl]pentanoic acid]",2200,260,1.9,12.5,9.4,150,–,–,–,–,–,–
"CCC[C@H](C(=O)O)[C@H](Cc1cccc(-c2ccc(C(=O)NC)cc2)c1)c1nn[nH]n1 [Example 344, (2S)-2-[(1S)-2-[4′-(methylcarbamoyl)biphenyl-3-yl]-1-(2H-tetrazol-5-yl)ethyl]pentanoic acid]",28,14,1.7,38,50,0.59,–,–,–,–,–,–
"CC[C@H](C)[C@H](C(=O)O)[C@H](Cc1ccc(C2CCNC2)cc1)c1nnn[nH]1 (stereo partly drawn) [Example 81, (2S,3S)-3-methyl-2-((1S)-2-(4-(pyrrolidin-3-yl)phenyl)-1-(1H-tetrazol-5-yl)ethyl)pentanoic acid]",–,–,–,–,–,–,65,46,4.4,2.3,6.2,2.3
"CCC[C@H](C(=O)O)[C@H](Cc1ccc(N2CCC[C@@H](N)C2)cc1)c1nn[nH]n1 [Example 229, (2S)-2-[(1S)-2-{4-[(3R)-3-aminopiperidin-1-yl]phenyl}-1-(2H-tetrazol-5-yl)ethyl]pentanoic acid]",–,–,–,–,–,–,1200,370,25,12.5,25,25
"CCC[C@H](C(=O)O)[C@H](Cc1ccc(C2CCNCC2O)cc1)c1nnn[nH]1 (mixture of isomers) [Example 416, (2S)-2-((1S)-2-(4-(3-hydroxypiperidin-4-yl)phenyl)-1-(1H-tetrazol-5-yl)ethyl)pentanoic acid]",1140,280,20.8,25,25,25,–,–,–,–,–,–
"Nc1ccc(C[C@H](c2nnn[nH]2)[C@@H](C(=O)O)C2CCCC2)cn1 [Example 122, (2S,3S)-4-(6-aminopyridin-3-yl)-2-cyclopentyl-3-(1H-tetrazol-5-yl)butanoic acid]",–,–,–,–,–,–,620,39,1.4,0.39,6.2,12.5
"CCC[C@H](C(=O)O)[C@H](Cc1ccc(NCCO)nc1)c1nnn[nH]1 [Example 129, (S)-2-((S)-2-(6-((2-hydroxyethyl)amino)pyridin-3-yl)-1-(1H-tetrazol-5-yl)ethyl)pentanoic acid]",–,–,–,–,–,–,830,77,5.6,0.39,9.4,9.4
"CC(C)C[C@H](C(=O)O)[C@H](Cc1ccc(N[C@@H]2CC[C@H](N)C2)nc1)c1nnn[nH]1 [Example 316, (2S)-2-[(1S)-2-(6-{[(1R,3S)-3-aminocyclopentyl]amino}pyridin-3-yl)-1-(1H-tetrazol-5-yl)ethyl]-4-methylpentanoic acid]",1200,450,22,1.6,12.5,12.5,–,–,–,–,–,–
"CC(C)C[C@H](C(=O)O)[C@H](Cc1ccc(-c2ccc(CO)cc2)nc1)c1nn[nH]n1 [Example 177, (2S)-2-[(1S)-2-{6-[4-(hydroxymethyl)phenyl]pyridin-3-yl}-1-(2H-tetrazol-5-yl)ethyl]-4-methylpentanoic acid]",–,–,–,–,–,–,140,40,5.1,12.5,38,4.7
"CCC[C@H](C(=O)O)[C@H](Cc1cccc(-c2cccc(C(N)=O)c2)c1)c1nn[nH]n1 [Example 341, (2S)-2-[(1S)-2-(3′-carbamoylbiphenyl-3-yl)-1-(2H-tetrazol-5-yl)ethyl]pentanoic acid]",110,6.6,0.99,18.8,18.8,2.3,–,–,–,–,–,–
"CCC[C@H](C(=O)O)[C@H](Cc1ccc(N2CCN(C)CC2)cc1)c1nn[nH]n1 [Example 231, (2S)-2-[(1S)-2-[4-(4-methylpiperazin-1-yl)phenyl]-1-(2H-tetrazol-5-yl)ethyl]pentanoic acid]",–,–,–,–,–,–,450,160,69,18.8,50,18.8
"CCC[C@H](C(=O)O)[C@H](Cc1ccccc1-c1cccc(C(N)=O)c1)c1nn[nH]n1 [Example 399, (2S)-2-[(1S)-2-(3′-carbamoylbiphenyl-2-yl)-1-(2H-tetrazol-5-yl)ethyl]pentanoic acid]",430,1.4,1.6,6.2,25,25,–,–,–,–,–,–
"CC(C)C[C@H](C(=O)O)[C@H](Cc1ccc(-c2ccc3c(c2)OCC(=O)N3)nc1)c1nn[nH]n1 [Example 180, (2S)-4-methyl-2-[(1S)-2-[6-(3-oxo-3,4-dihydro-2H-1,4-benzoxazin-7-yl)pyridin-3-yl]-1-(2H-tetrazol-5-yl)ethyl]pentanoic acid]",–,–,–,–,–,–,130,17,1.7,25,50,3.1
"CCC[C@H](C(=O)O)[C@H](Cc1ccccc1C1=CCC(NC)CC1)c1nn[nH]n1 (stereo partly drawn) [Example 448, 2′-((2S,3S)-3-carboxy-2-(2H-tetrazol-5-yl)hexyl)-N-methyl-2,3,4,5-tetrahydro-[1,1′-biphenyl]-4-aminium 2,2,2-trifluoroacetate]",7790,92.5,48.6,12.5,37.5,200,–,–,–,–,–,–
"CCC[C@H](C(=O)O)[C@H](Cc1ccc(CN)cc1)c1nnn[nH]1 [Example 54, (S)-2-((S)-2-(4-(aminomethyl)phenyl)-1-(1H-tetrazol-5-yl)ethyl)pentanoic acid]",–,–,–,–,–,–,13000,1600,40,18.8,12.5,75
"CCC[C@H](C(=O)O)[C@H](Cc1ccc(-c2ccc3ccnc(C#N)c3c2)nc1)c1nnn[nH]1 [Example 162, (2S)-2-[(1S)-2-[6-(1-cyanoisoquinolin-7-yl)pyridin-3-yl]-1-(1H-tetrazol-5-yl)ethyl]pentanoic acid]",–,–,–,–,–,–,560,22,3.7,75,125,12.5
"CCC[C@H](C(=O)O)[C@H](Cc1cccc2nsnc12)c1nnn[nH]1 [Example 272, (2S)-2-[(1S)-2-(2,1,3-benzothiadiazol-4-yl)-1-(1H-tetrazol-5-yl)ethyl]pentanoic acid]",600,12,0.35,4.7,9.4,38,–,–,–,–,–,–
"CC(C)[C@H](C(=O)O)[C@H](Cc1ccc(C2CCNC2)c(F)c1)c1nnn[nH]1 (stereo partly drawn) [Example 109, (2S,3S)-4-(3-fluoro-4-(pyrrolidin-3-yl)phenyl)-2-isopropyl 3-(1H-tetrazol-5-yl)butanoic acid]",–,–,–,–,–,–,450,17,1.2,3.1,4.7,12.5
"CC(C)C[C@H](C(=O)O)[C@H](Cc1ccc(-c2ccc(CN)cc2)cn1)c1nn[nH]n1 [Example 174, (2S)-2-[(1S)-2-{5-[4-(aminomethyl)phenyl]pyridin-2-yl}-1-(2H-tetrazol-5-yl)ethyl]-4-methylpentanoic acid]",–,–,–,–,–,–,2700,240,110,9.4,25,50
